Biological target: T1, mAChR M1 (UniProt P08482)
T1 sequence (P08482 1-460): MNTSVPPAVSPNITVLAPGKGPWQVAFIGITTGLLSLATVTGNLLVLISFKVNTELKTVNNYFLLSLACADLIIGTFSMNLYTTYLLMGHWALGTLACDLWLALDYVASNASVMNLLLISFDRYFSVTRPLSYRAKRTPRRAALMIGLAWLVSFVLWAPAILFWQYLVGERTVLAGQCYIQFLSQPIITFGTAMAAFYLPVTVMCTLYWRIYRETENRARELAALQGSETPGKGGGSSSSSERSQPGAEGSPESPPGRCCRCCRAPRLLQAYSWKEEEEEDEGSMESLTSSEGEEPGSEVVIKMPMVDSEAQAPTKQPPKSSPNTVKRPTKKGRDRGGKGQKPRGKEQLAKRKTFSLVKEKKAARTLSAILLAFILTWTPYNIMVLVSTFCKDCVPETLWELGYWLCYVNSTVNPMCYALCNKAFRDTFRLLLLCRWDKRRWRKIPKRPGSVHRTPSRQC
Experiment: mAChR M1 cell-based functional assay (calcium mobilization, PAM mode)
Settings: for Emax: Percent of AChmax activity in presence of 30 μM test compound; for EC50: potentiation of EC20 acetylcholine response, calcium flux in CHO-K1 cells expressing mAChR M1, >10 μM is estimated for low potency compounds without plateau
Excerpt: Chinese hamster ovary (CHO-K1) cells stably expressing rat (r)M1 were purchased from the American Type Culture Collection and cultured according to their indicated protocol. CHO cells stably expressing human (h)M2, hM3, and hM5 were described previously (Levey et al., 1991); hM1 and hM4 cDNAs were purchased from Missouri S&T cDNA Resource; rM4 cDNA was provided by T. I. Bonner (National Institutes of Health, Bethesda, Md.). rM2 and rM3 were cloned from a rat brain cDNA library and sequence verified. hM1, rM2, rM3, hM4, and rM4 cDNAs were used to stably transfect CHO-K1 cells purchased from the American Type Culture Collection using Lipofectamine-2000. To make stable rM2, hM2, hM4, and rM4 cell lines for use in calcium mobilization assays, these cells also were stably transfected with a chimeric G-protein (Gqi5) (provided by B.R. Conklin, University of California, San Francisco) using Lipofectamine 2000. rM1, hM1, rM3, hM3, rM5, and hM5 cells were grown in Ham's F-12 medium containing 10% heat-inactivated fetal bovine serum (FBS), 20 mM HEPES, and 50 μg/mL G418 sulfate. rM2-Gqi5, hM2-Gqi5, and hM4-Gqi5 cells were grown in the same medium also containing 500 μg/mL Hygromycin B. Stable rM4-Gqi5 cells were grown in DMEM containing 10% heat-inactivated FBS, 20 mM HEPES, 400 μg/mL G418 sulfate, and 500 μg/mL Hygromycin B.
For high throughput measurement of agonist-evoked increases in intracellular calcium, CHO-K1 cells stably expressing muscarinic receptors were plated in growth medium lacking G418 and hygromycin at 15,000 cells/20 μL/well in Greiner 384-well black-walled, tissue culture (TC)-treated, clear-bottom plates (VWR). Cells were incubated overnight at 37° C. and 5% CO2. The next day, cells were washed using an ELX 405 (BioTek) with four washes (80 μL) of assay buffer then aspirated to 20 μL. Next, 20 μL of 16 μM Fluo-4/acetoxymethyl ester (Invitrogen, Carlsbad, Calif.) prepared as a 2.3 mM stock in DMSO and mixed in a 1:1 ratio with 10% (w/v) Pluronic F-127 and diluted in assay buffer was added to the wells and the cell plates were incubated for 50 min at 37° C. and 5% CO2. Dye was removed by washing with the ELX 405 (four 80 μL washes of assay buffer) then aspirated to 20 μL. Compound master plates were formatted in an 11 point CRC format (1:3 dilutions) in 100% DMSO with a starting concentration of 10 mM using the BRAVO liquid handler (Agilent). Test compound CRCs were then transferred to daughter plates (240 nL) using the Echo acoustic plate reformatter (Labcyte, Sunnyvale, Calif.) and then diluted into assay buffer (40 μL) to a 2× stock using a Thermo Fisher Combi (Thermo Fisher Scientific, Waltham, Mass.).
Calcium flux was measured using the Functional Drug Screening System (FDSS) 6000 (Hamamatsu Corporation, Tokyo, Japan) as an increase in the fluorescent static ratio. Compounds were applied to cells (20 μL, 2×) using the automated system of the FDSS 6000 at 4 s into the 300 s protocol and the data were collected at 1 Hz. At 144 s into the 300 s protocol, 10 μL of an EC20 concentration of the muscarinic receptor agonist acetylcholine was added (5×), followed by the addition of 12 μL an EC80 concentration of acetylcholine at the 230 s time point (5×). Agonist activity was analyzed as a concentration-dependent increase in calcium mobilization upon compound addition. Positive allosteric modulator activity was analyzed as a concentration-dependent increase in the EC20 acetylcholine response. Antagonist activity was analyzed as a concentration-dependent decrease in the EC80 acetylcholine response. Concentration-response curves were generated using a four-parameter logistical equation in XLFit curve fitting software (IDBS, Bridgewater, N.J.) for Excel (Microsoft, Redmond, Wash.) or Prism (GraphPad Software, Inc., San Diego, Calif.).
The calcium mobilization assay was also used to determine “efficacy”. […]

| Emax [%] | EC50 [µM] | SMILES |
| --- | --- | --- |
| 68 | 3.4 | Cn1cc(-c2ccc(CN3C(=O)C(O)(C(F)(F)F)c4ccccc43)c(F)c2)cn1 (single isomer, unassigned) [Compound B2, 1-(2-fluoro-4-(1-methyl-1H-pyrazol-4-yl)benzyl)-3-hydroxy-3-(trifluoromethyl)indolin-2-one] |
| 52 | > 10 | Cn1cc(-c2ccc(CN3C(=O)C(C)(O)c4ccccc43)c(F)c2)cn1 (stereo not shown) [Compound B8, 1-(2-fluoro-4-(1-methyl-1H-pyrazol-4-yl)benzyl)-3-hydroxy-3-methylindolin-2-one] |
| 45 | > 10 | Cn1cc(-c2ccc(CN3C(=O)C(O)(C(F)(F)F)c4ccccc43)cc2F)cn1 (stereo not shown) [Compound B11] |
| 55 | > 10 | CC1C(=O)N(Cc2ccc(-c3cnn(C)c3)cc2F)c2ccccc21 (stereo not shown) [Compound B9] |
| 37 | 4.9 | Cc1n[nH]cc1-c1ccc(CN2C(=O)C(O)(C(F)(F)F)c3ccccc32)c(F)c1 (stereo not shown) [Compound B5] |
| 75 | 2.6 | Cn1cc(-c2ccc(CN3C(=O)Cc4ccccc43)c(F)c2)cn1 [Compound B1] |
| 46 | 1.36 | Cn1cc(-c2ccc(CN3C(=O)C(N)c4ccccc43)c(F)c2)cn1 (stereo not shown) [Compound B20] |
| 54 | 3.64 | Cn1cc(-c2ccc(CN3C(=O)C(O)(C(F)(F)F)c4ccccc43)c(F)c2)cn1 (stereo not shown) [Compound B19] |
| 44 | > 10 | CC(c1ccc(-c2cnn(C)c2)cc1F)N1C(=O)Cc2ccccc21 (stereo not shown) [Compound B24] |
| 38 | > 10 | CC(C)n1cc(-c2ccc(CN3C(=O)C(O)(C(F)(F)F)c4ccccc43)c(F)c2)cn1 (stereo not shown) [Compound B13] |
| 35 | 3.9 | Cn1cc(-c2ccc(CN3C(=O)C(O)(C(F)(F)F)c4cc(F)ccc43)c(F)c2)cn1 (stereo not shown) [Compound B3] |
| 45 | > 10 | CCn1cc(-c2ccc(CN3C(=O)C(O)(C(F)(F)F)c4ccccc43)c(F)c2)cn1 (stereo not shown) [Compound B14] |
| 60 | 5 | Cn1cc(-c2ccc(CN3C(=O)C(O)(C(F)(F)F)c4ccccc43)c(F)c2)cn1 (stereo not shown) [Compound B6, 1-(2-fluoro-4-(1-methyl-1H-pyrazol-4-yl)benzyl)-3-hydroxy-3-(trifluoromethyl)indolin-2-one] |
| 52 | 4.6 | Cn1cc(-c2ccc(CN3C(=O)C(O)(CF)c4ccccc43)c(F)c2)cn1 (stereo not shown) [Compound B4, 1-(2-fluoro-4-(1-methyl-1H-pyrazol-4-yl)benzyl)-3-(fluoromethyl)-3-hydroxyindolin-2-one] |
| 54 | > 10 | Cn1cc(-c2ccc(CN3C(=O)C(O)(C(F)(F)F)c4ccccc43)cn2)cn1 (stereo not shown) [Compound B17] |
| 43 | 5.5 | CN(C)C1(C)C(=O)N(Cc2ccc(-c3cnn(C)c3)cc2)c2ccccc21 (racemic) [Compound B7, 3-(dimethylamino)-3-methyl-1-(4-(1-methyl-1H-pyrazol-4-yl)benzyl)indolin-2-one] |
| 28 | > 10 | Cn1cc(-c2ccc(CN3C(=O)C(C)(N)c4ccccc43)cc2)cn1 (racemic) [Compound B15, 3-amino-3-methyl-1-(4-(1-methyl-1H-pyrazol-4-yl)benzyl)indolin-2-one] |
| 41 | > 10 | Cn1cc(-c2ccc(CN3C(=O)C(O)(C(F)(F)F)c4ccccc43)c(Cl)c2)cn1 (stereo not shown) [Compound B10, 1-(2-chloro-4-(1-methyl-1H-pyrazol-4-yl)benzyl)-3-hydroxy-3-(trifluoromethyl)indolin-2-one] |
| 31 | > 10 | CCCn1cc(-c2ccc(CN3C(=O)C(O)(C(F)(F)F)c4ccccc43)c(F)c2)cn1 (stereo not shown) [Compound B16] |
|  | > 30 | Cn1cc(-c2ccc(CN3C(=O)C(O)(C(F)(F)F)c4ccccc43)c(F)c2)cn1 (single isomer, unassigned) [Compound B18, 1-(2-fluoro-4-(1-methyl-1H-pyrazol-4-yl)benzyl)-3-hydroxy-3-(trifluoromethyl)indolin-2-one] |
| 63 | > 10 | Cn1cc(-c2ccc(CN3C(=O)C(O)(C(F)(F)F)c4ccccc43)cc2)cn1 (stereo not shown) [Compound B12] |
| 38 | > 10 | Cn1cc(-c2ccc(CN3C(=O)C(O)(C(F)(F)F)c4ccccc43)cc2F)cn1 (stereo not shown) [Compound B21] |

Source: patent publication US9029563B2, “Substituted 1-benzylindolin-2-one analogs as positive allosteric modulators of muscarinic acetylcholine M1 receptors” (Vanderbilt University, priority 2012, dated 2015)
